According to ChEMBL document CHEMBL1136432, “Discovery of potent imidazole and cyanophenyl containing farnesyltransferase inhibitors with improved oral bioavailability” (Bioorg Med Chem Lett, 2003):

Tests used:
[1] = target: T1, Protein farnesyltransferase (Bos taurus, UniProt P29702+P49355); experiment: Inhibition of transfer of [3H]FPP to biotin K-ras peptide (KKSKTKCVIM) catalyzed by bovine FTase; assay type: protein-complex assay
NIH3T3 = experiment: Concentration needed to reduce 50% of farnesylation in NIH3T3 H-ras cell line; assay type: functional, cell-based; settings: Mus musculus
[2] = Oral bioavailability in monkey; settings: cercopithecidae, in vivo
in vivo = settings: dog, po, 5 mg/kg
Description: Oral bioavailability in dog (dose 5 mg/kg)

[3] = Half life in dog at the single oral dose of 1 mg/kg; assay type: ADME, organism-based, Canis lupus familiaris; parameters: dose 1 mg/kg, route oral; settings: in vivo
[4] = Pharmacokinetic (PK) property (Tmax) was determined in dog at the single dose of 1 mg/kg; assay type: ADME, organism-based, Canis lupus familiaris; parameters: dose 1 mg/kg; settings: in vivo
[5] = Pharmacokinetic (PK) property (AUC) was determined in dog at the single oral dose of 1 mg/kg; assay type: ADME, organism-based, Canis lupus familiaris; parameters: dose 1 mg/kg, route oral; settings: in vivo
[6] = Pharmacokinetic (PK) property (Cmax) was determined in dog at the single dose of 1 mg/kg; assay type: ADME, organism-based, Canis lupus familiaris; parameters: dose 1 mg/kg; settings: in vivo
[7] = target: T1, Protein farnesyltransferase; experiment: Inhibition of [3H]FPP transfer to biotin K-ras peptide (KKSKTKCVIM) by bovine FTase; assay type: protein-complex assay
[8] = target: Geranylgeranyl transferase type I (Bos taurus, UniProt P29702+Q5EAD5); experiment: Inhibition of [3H]FPP transfer to biotin K-ras peptide (KKSKTKCVLL) catalyzed by bovine GGTase-I

SMILES | IC50 [1] [nM] | EC50 (NIH3T3) [nM] | other results
Cn1cncc1C(OCc1ccc(C#N)cc1-c1cccc(Cl)c1)c1ccc(C#N)nc1 (stereo unspecified) | 0.75 | 2.1 | –
Cn1cncc1C(OCc1ccc(C#N)nc1-c1cc(F)cc(F)c1)c1ccc(C#N)cc1 (stereo unspecified) | 0.71 | 2.2 | –
Cn1cncc1C(OCc1ccc(C#N)c(-c2cccc(Cl)c2)n1)c1ccc(C#N)cc1 (stereo unspecified) | 12 | – | –
Cn1cncc1C(OCc1ccc(C#N)cc1-c1ccc(F)c(Cl)c1)c1ccc(C#N)nc1 (stereo unspecified) | 1 | 46 | –
Cn1cncc1C(OCc1nc(N2CCN(C(=O)OC(C)(C)C)CC2)c(C#N)cc1-c1cccc(Cl)c1)c1ccc(C#N)cc1 (stereo unspecified) | – | 4.5 | –
CN1CCN(c2nc(COC(c3ccc(C#N)cc3)c3cncn3C)c(-c3cccc(Cl)c3)cc2C#N)CC1 (stereo unspecified) | 0.57 | 2 | –
Cn1cncc1C(OCc1ccc(C#N)nc1-c1cccc(Cl)c1)c1ccc(C#N)cc1 (stereo unspecified) | 0.82 | 1.8 | –
Cn1cncc1C(OCc1ccc(C#N)cc1)c1ccc(C#N)c(-c2cccc3cccnc23)c1 (stereo unspecified) | 2 | 3.7 | bioavailability [2]: 92%; bioavailability (in vivo): 53%
Cn1cncc1C(OCc1ccc(C#N)nc1-c1ccc(OC(F)(F)F)cc1)c1ccc(C#N)cc1 (stereo unspecified) | 0.51 | 4 | –
CC(=O)N1CCN(c2nc(COC(c3ccc(C#N)cc3)c3cncn3C)c(-c3cccc(Cl)c3)cc2C#N)CC1 (stereo unspecified) | 0.98 | 0.4 | –
Cn1cncc1C(OCc1ccc(C#N)nc1-c1ccc2c(c1)OC(F)(F)O2)c1ccc(C#N)cc1 (stereo unspecified) | 0.18 | 1.2 | half-life [3]: 7.6 h; Tmax [4]: 1 h; AUC [5]: 2800 ng·h/mL; Cmax [6]: 260 ng/mL
Cn1cncc1C(OCc1ccc(C#N)cc1-c1ccc2c(c1)OCO2)c1ccc(C#N)nc1 (stereo unspecified) | 0.84 | 3.5 | –
Cn1cncc1C(OCc1ccc(C#N)nc1-c1ccccc1)c1ccc(C#N)cc1 (stereo unspecified) | 3.9 | 19 | –
COc1cccc(-c2cc(C#N)ccc2COC(c2ccc(C#N)cc2)c2cncn2C)c1 (stereo unspecified) | 0.62 | 1.2 | –
Cn1cncc1C(OCc1ccc(C#N)cc1-c1cc(F)cc(F)c1)c1ccc(C#N)nc1 (stereo unspecified) | 2 | 25 | –
Cn1cncc1C(OCc1ccc(C#N)cc1-c1cccc(OC(F)(F)F)c1)c1ccc(C#N)nc1 (stereo unspecified) | 0.4 | 24 | –
Cn1cncc1C(OCc1ccc(C#N)c(-c2cccc(C#N)c2)n1)c1ccc(C#N)cc1 (stereo unspecified) | 68 | – | –
Cn1cncc1C(OCc1ccc(C#N)cc1-c1cc(Cl)cc(Cl)c1)c1ccc(C#N)nc1 (stereo unspecified) | 0.64 | 3.5 | –

SMILES | IC50 [1] [nM] | EC50 (NIH3T3) [nM] | other results
Cn1cncc1C(OCc1ccc(C#N)nc1N1CCOCC1)c1ccc(C#N)cc1 (stereo unspecified) | 1.9 | 88 | –
Cn1cncc1C(OCc1cnc(C#N)cc1-c1cccc(Cl)c1)c1ccc(C#N)cc1 (stereo unspecified) | 1.8 | 17 | –
Cn1cncc1C(OCc1nc(N2CCC(C(N)=O)CC2)c(C#N)cc1-c1cccc(Cl)c1)c1ccc(C#N)cc1 (stereo unspecified) | 0.73 | 1.5 | –
COc1cccc(-c2cc(C#N)ccc2COC(c2ccc(C#N)nc2)c2cncn2C)c1 (stereo unspecified) | 0.88 | 20 | –
Cn1cncc1C(OCc1ccc(C#N)nc1-c1ccc2ccccc2c1)c1ccc(C#N)cc1 (stereo unspecified) | 0.16 | 7.4 | –
Cn1cncc1C(OCc1ccc(C#N)nc1N1CCN(C(=O)OC(C)(C)C)CC1)c1ccc(C#N)cc1 (stereo unspecified) | 44 | – | –
Cn1cncc1C(OCc1nc(N2CCC(O)CC2)c(C#N)cc1-c1cccc(Cl)c1)c1ccc(C#N)cc1 (stereo unspecified) | 0.51 | 3.6 | –
Cn1cncc1C(OCc1nc(Cl)c(C#N)cc1-c1cccc(Cl)c1)c1ccc(C#N)cc1 (stereo unspecified) | – | 29 | –
Cn1cncc1C(OCc1ncc(C#N)cc1-c1cccc(Cl)c1)c1ccc(C#N)cc1 (stereo unspecified) | 0.92 | 10 | –
Cn1cncc1C(OCc1ccc(C#N)c(-c2ccc(Cl)cc2)n1)c1ccc(C#N)cc1 (stereo unspecified) | 25 | – | –
Cn1cncc1C(OCc1ccc(C#N)nc1-c1cc(Cl)cc(Cl)c1)c1ccc(C#N)cc1 (stereo unspecified) | 0.45 | 6 | –
Cn1cncc1C(OCc1ccc(C#N)nc1-c1cccc(OC(F)(F)F)c1)c1ccc(C#N)cc1 (stereo unspecified) | 0.18 | 2 | –
Cn1cncc1C(OCc1ccc(C#N)cc1)c1ccc(C#N)c(-c2cccc3ccccc23)c1 (stereo unspecified) | – | 110 | IC50 [7]: 0.2 nM; IC50 [8]: 18 nM
Cn1cncc1C(OCc1nc(N2CCOCC2)c(C#N)cc1-c1cccc(Cl)c1)c1ccc(C#N)cc1 (stereo unspecified) | 0.25 | 1.2 | –
Cn1cncc1C(OCc1ccc(C#N)cc1-c1cccc2ccccc12)c1ccc(C#N)nc1 (stereo unspecified) | 1.7 | 46 | –
Cn1cncc1C(OCc1ccc(C#N)c(-c2ccc3ccccc3c2)n1)c1ccc(C#N)cc1 (stereo unspecified) | 8.2 | – | –
CN1CCN(c2nc(COC(c3ccc(C#N)cc3)c3cncn3C)ccc2C#N)CC1 (stereo unspecified) | 58 | – | –
Cn1cncc1C(OCc1ccc(C#N)cn1)c1ccc(C#N)c(-c2cccc3ccccc23)c1 (stereo unspecified) | 0.43 | 6 | –
